The subject of assay [1] is NF-kB reporter in Jurkat cells. The experiment in a line: NF-kB reporter assay in Jurkat cells stimulated with aCD3/aCD28/PMA. To be noted: read-out: NF-kB Reporter Assay IC50. In kind it is cell-based. In short, it runs like this:
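Jurkat cells (25,000/well, serum-free RPMI) were pre-incubated 1 h at 37° C with serially diluted compound, then stimulated 4 h with aCD3/aCD28/PMA at final […]. NF-kB reporter activity was read by One-Glo luminescence; IC50 values reported.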
On the technique in general: A reporter such as luciferase makes a cellular process visible.

The target in the next assay is Avi-tagged FL MALT-1 (Homo sapiens (Human), UniProt Q9UDY8). As to the kind of experiment: MALT-1 Fluorogenic Peptide Cleavage Assay (MALT1 inhibition assay). The note with it: Ac-LRSR-AMC peptide substrate, 30 min pre-incubation, 90 min reaction at room temperature. In kind it is biochemical. In short, it runs like this:
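Full-length Avi-tagged human MALT-1 (40 nM working stock) pre-incubated 30 min at RT with compound in 25 mM HEPES pH 6.89, 660 mM sodium citrate, 1 mM TCEP, […], 0.05% CHAPS, 2% DMSO. Ac-LRSR-AMC added at Km (50 μM working stock) or 10×Km (280 μM working stock); 90 min at RT, AMC fluorescence (ex 342/em 441 nm), IC50 from % inhibition curves.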

Setting [2] is: Homo sapiens, Jurkat cells, 1 hr compound pre-incubation, aCD3/aCD28/PMA stimulation 4 hr, One-Glo readout.

Where two headings read alike, the source gives them in different places.

Chain of Avi-tagged FL MALT-1 (Q9UDY8 whole entry): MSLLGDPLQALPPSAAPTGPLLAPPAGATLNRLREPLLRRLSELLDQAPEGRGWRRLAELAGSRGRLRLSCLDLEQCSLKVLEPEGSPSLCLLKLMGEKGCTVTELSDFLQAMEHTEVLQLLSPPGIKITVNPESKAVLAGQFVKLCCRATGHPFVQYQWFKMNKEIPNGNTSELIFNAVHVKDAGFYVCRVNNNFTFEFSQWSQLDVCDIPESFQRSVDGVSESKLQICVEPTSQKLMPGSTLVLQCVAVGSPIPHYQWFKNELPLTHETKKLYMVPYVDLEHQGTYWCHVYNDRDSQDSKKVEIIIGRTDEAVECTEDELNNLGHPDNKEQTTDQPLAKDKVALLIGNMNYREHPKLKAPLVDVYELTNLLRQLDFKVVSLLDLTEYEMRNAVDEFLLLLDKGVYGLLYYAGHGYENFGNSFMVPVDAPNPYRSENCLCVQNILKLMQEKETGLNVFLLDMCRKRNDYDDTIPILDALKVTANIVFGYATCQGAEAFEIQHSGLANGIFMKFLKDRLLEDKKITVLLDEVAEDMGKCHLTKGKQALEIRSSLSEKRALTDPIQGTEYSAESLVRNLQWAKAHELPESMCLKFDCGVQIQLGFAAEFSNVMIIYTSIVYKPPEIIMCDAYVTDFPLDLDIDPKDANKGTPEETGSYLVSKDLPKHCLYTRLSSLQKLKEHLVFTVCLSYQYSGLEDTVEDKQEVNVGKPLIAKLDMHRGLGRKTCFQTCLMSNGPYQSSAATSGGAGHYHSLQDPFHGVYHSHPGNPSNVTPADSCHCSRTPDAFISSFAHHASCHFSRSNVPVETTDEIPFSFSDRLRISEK

Turning to `CC1CCN(c2ccnc(-n3cc(S(=O)(=O)Nc4cccc5cnn(C)c45)cn3)c2)CC1` [Compound I-390, N-(1-methylindazol-7-yl)-1-[4-(4-methylpiperidin-1-yl)pyridin-2-yl]pyrazole-4-sulfonamide], the results for the IC50 (in assay [1] (setting [2]); on Avi-tagged FL MALT-1) were less than 400 nM and greater than 2500 nM, respectively.
Take `Cn1ncc2cccc(NS(=O)(=O)c3cnn(-c4cc(N5CCCCCC5)ccn4)c3)c21` [Compound I-391, 1-[4-(azepan-1-yl)pyridin-2-yl]-N-(1-methylindazol-7-yl)pyrazole-4-sulfonamide]: the IC50 is less than 400 nM in assay [1] (setting [2]) and greater than 2500 nM against Avi-tagged FL MALT-1.
As to `COc1ccc2cnn(C)c2c1NS(=O)(=O)c1cnn(-c2cc(N3CCCCCC3)ccn2)c1` [Compound I-392], the IC50 in assay [1] (setting [2]) is less than 400 nM; at Avi-tagged FL MALT-1, greater than 2500 nM.
For the molecule `O=S(=O)(c1cnn(-c2cc(C(F)(F)F)ccn2)c1)N1CCCc2ccc3cn[nH]c3c21` [Compound I-393, 9-((1-(4-(trifluoromethyl)pyridin-2-yl)-1H-pyrazol-4-yl)sulfonyl)-6,7,8,9-tetrahydro-1H-pyrazolo[4,3-h]quinoline], the IC50 (in assay [1] (setting [2]); on Avi-tagged FL MALT-1) was greater than 2500 nM in each case.
Consider `CC1CC(F)(c2ccnc(-n3cc(S(=O)(=O)Nc4cccc5cnn(C)c45)cn3)c2)C1` (stereo not shown) [Compound I-394], for which the IC50 in assay [1] (setting [2]) is less than 400 nM; at Avi-tagged FL MALT-1, greater than 2500 nM.
In the case of `CC1CC(F)(c2ccnc(-n3cc(S(=O)(=O)Nc4cccc5cnn(C)c45)cn3)c2)C1` (stereo not shown) [Compound I-395, 1-(4-(1-fluoro-3-methylcyclobutyl)pyridin-2-yl)-N-(1-methyl-1H-indazol-7-yl)-1H-pyrazole-4-sulfonamide], the IC50 in assay [1] (Jurkat cells, 1 hr compound pre-incubation, aCD3/aCD28/PMA stimulation 4 hr, One-Glo readout) is less than 400 nM; at Avi-tagged FL MALT-1 it was greater than 2500 nM.
Turning to `O=S(=O)(c1cnn(-c2cc(C(F)(F)F)ccn2)c1)N1CCCCn2ncc3cccc1c32` [Compound I-396, 1-((1-(4-(trifluoromethyl)pyridin-2-yl)-1H-pyrazol-4-yl)sulfonyl)-2,3,4,5-tetrahydro-1H-[1,4]diazocino[3,2,1-hi]indazole], the IC50 in assay [1] (Homo sapiens, Jurkat) is greater than 2500 nM; at Avi-tagged FL MALT-1 it was greater than 2500 nM.
For `COc1ncc2cnn(C)c2c1NS(=O)(=O)c1cnn(-c2cc(N3CC(C)C3)ccn2)c1` [Compound I-397], the results for the IC50 (in assay [1] (setting [2]); against Avi-tagged FL MALT-1) were less than 400 nM and 1000 to 2500 nM, respectively.
The corresponding values for `COc1ncc2cnn(C)c2c1NS(=O)(=O)c1cnn(-c2cc(N3CCCC3)ccn2)c1` [Compound I-398, N-{6-methoxy-1-methylpyrazolo[4,3-c]pyridin-7-yl}-1-[4-(pyrrolidin-1-yl)pyridin-2-yl]pyrazole-4-sulfonamide] are less than 400 nM and 400 to 1000 nM.
Regarding `COC1CC(c2ccnc(-n3cc(S(=O)(=O)Nc4cccc5cnn(C)c45)cn3)c2)C1` (stereo not shown) [Compound I-399, 1-(4-(3-methoxycyclobutyl)pyridin-2-yl)-N-(1-methyl-1H-indazol-7-yl)-1H-pyrazole-4-sulfonamide], the IC50 is less than 400 nM in assay [1] (setting [2]) and greater than 2500 nM at Avi-tagged FL MALT-1.
In the same order, the values of `C[C@H]1CCN(c2ccnc(-n3cc(S(=O)(=O)Nc4cccc5cnn(C)c45)cn3)c2)C1` [Compound I-400, N-(1-methylindazol-7-yl)-1-{4-[(3S)-3-methylpyrrolidin-1-yl]pyridin-2-yl} pyrazole-4-sulfonamide] are less than 400 nM and greater than 2500 nM.
The corresponding values for `C[C@@H]1CCN(c2ccnc(-n3cc(S(=O)(=O)Nc4cccc5cnn(C)c45)cn3)c2)C1` [Compound I-401, N-(1-methylindazol-7-yl)-1-{4-[(3R)-3-methylpyrrolidin-1-yl]pyridin-2-yl}pyrazole-4-sulfonamide] are less than 400 nM and greater than 2500 nM.
Take `COc1ccc2cnn(C)c2c1NS(=O)(=O)c1cnn(-c2cc(N3CC[C@H](C)C3)ccn2)c1` [Compound I-402]: the figures for the IC50 (in assay [1] (setting [2]); against Avi-tagged FL MALT-1) were less than 400 nM and greater than 2500 nM, respectively.
In the same order, the values of `COc1ccc2cnn(C)c2c1NS(=O)(=O)c1cnn(-c2cc(N3CC[C@@H](C)C3)ccn2)c1` [Compound I-403] are less than 400 nM and greater than 2500 nM.

What is called IC50 is the concentration needed to halve the response being measured.

Values taken from patent publication US20240150321A1, “PYRAZOLYLSULFONAMIDE COMPOUNDS AND THEIR USE IN THERAPY” (HOTSPOT THERAPEUTICS, INC., priority 2022, published 2024).
